# Assay results from US8362249B2, “CXCR3 receptor antagonists” (Boehringer Ingelheim International GmbH, priority 2009, dated 2013).
# Target: CXCR3 (Macaca fascicularis, UniProt A0A2K5UV19)
# Assay: functional cellular assay measuring calcium flux in CXCR3 transfected cells (block of CXCR3/IP-10 interaction)
# Format: cell-based
# Settings: IP-10 induced intracellular calcium flux; Cyno-CHO cells stably expressing recombinant CXCR3 and G-alpha-16
# Method in brief: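 Cyno-CHO cells stably co-expressing recombinant CXCR3 and G-alpha-16, loaded with Ca-4 dye (HBSS, 10 mM HEPES pH 7.4, 2 mM probenecid) for 1 h at 37 °C. Compound (10 microM final) preincubated 15 min at room temperature, then IP-10 added at EC80. Intracellular calcium flux read by fluorescence (ex 480/em 540 nm).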
# CXCR3, sequence (A0A2K5UV19 entry or part of it): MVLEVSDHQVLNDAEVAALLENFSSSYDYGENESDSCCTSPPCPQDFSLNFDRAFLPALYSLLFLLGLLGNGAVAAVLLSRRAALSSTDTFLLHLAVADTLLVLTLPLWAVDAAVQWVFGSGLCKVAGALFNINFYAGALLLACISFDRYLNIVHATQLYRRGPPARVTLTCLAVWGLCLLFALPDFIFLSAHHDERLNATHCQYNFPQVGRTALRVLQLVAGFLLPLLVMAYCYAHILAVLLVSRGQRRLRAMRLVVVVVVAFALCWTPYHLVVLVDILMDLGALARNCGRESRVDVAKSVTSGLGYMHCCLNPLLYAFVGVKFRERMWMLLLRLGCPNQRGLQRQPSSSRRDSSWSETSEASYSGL
row,IC50,Structure (SMILES)
1,3 nM,"O=C(Nc1cc(Cl)cnc1N1CCCN(C(=O)CN2CCCCC2)CC1)c1cccc(Cl)c1 [3-Chloro-N-{5-chloro-2-[4-(2-piperidin-1-yl-acetyl)-[1,4]diazepan-1-yl]-pyridin-3-yl}-benzamide]"
2,13 nM,"Cc1cc(C)n(CC(=O)N2CCN(c3ccccc3C(=O)Nc3ccc4nc(C)sc4c3)CC2)n1 [2-{4-[2-(3,5-Dimethyl-pyrazol-1-yl)-acetyl]-piperazin-1-yl}-N-(2-methyl-benzothiazol-6-yl)-benzamide]"
3,11.5 nM,"Cc1cc(C)n(CC(=O)N2CCN(c3ccccc3C(=O)Nc3cnc4c(cnn4C(C)C)c3)CC2)n1 [2-{4-[2-(3,5-Dimethyl-pyrazol-1-yl)-acetyl]-piperazin-1-yl}-N-(1-isopropyl-1H-pyrazolo[3,4-b]pyridin-5-yl)-benzamide]"
4,9.7 nM,"CS(=O)(=O)c1ccc(NC(=O)c2ccccc2N2CCN(C(=O)CN3CCc4cccnc43)CC2)cc1 [2-[4-(2-2,3-Dihydro-pyrrolo[2,3-b]pyridin-1-yl-acetyl)-piperazin-1-yl]-N-(4-methanesulfonyl-phenyl)-benzamide]"
5,10 nM,"Cc1cc(C)n(CC(=O)N2CCN(c3ccccc3C(=O)Nc3ccc(Oc4ccccc4)nc3)CC2)n1 [2-{4-[2-(3,5-Dimethyl-pyrazol-1-yl)-acetyl]-piperazin-1-yl}-N-(6-phenoxy-pyridin-3-yl)-benzamide]"
6,7.2 nM,O=C(Nc1ccncc1)c1ccccc1N1CCN(C(=O)Cc2n[nH]c3ccccc23)CC1 [2-[4-(2-1H-Indazol-3-yl-acetyl)-piperazin-1-yl]-N-pyridin-4-yl-benzamide]
7,19.5 nM,"Cc1cc(C)n(CC(=O)N2CCN(c3ccccc3C(=O)Nc3ccncc3F)CC2)n1 [2-{4-[2-(3,5-Dimethyl-pyrazol-1-yl)-acetyl]-piperazin-1-yl}-N-(3-fluoro-pyridin-4-yl)-benzamide]"
8,8.1 nM,"COc1ccc(C(=O)NCC(=O)N2CCN(c3ccccc3C(=O)Nc3ccccc3)CC2)cc1OC [3,4-Dimethoxy-N-{2-oxo-2-[4-(2-phenylcarbamoyl-phenyl)-piperazin-1-yl]-ethyl}-benzamide]"
9,12.5 nM,"COc1cccc(C(=O)NCC(=O)N2CCN(c3ccccc3C(=O)Nc3cccnc3)CC2)c1OC [2,3-Dimethoxy-N-(2-oxo-2-{4-[2-(pyridin-3-ylcarbamoyl)-phenyl]-piperazin-1-yl}-ethyl)-benzamide]"
10,4.1 nM,"Cc1cc(C)n(CC(=O)N2CCN(c3ccccc3C(=O)Nc3ccnc(Br)c3)CC2)n1 [N-(2-Bromo-pyridin-4-yl)-2-{4-[2-(3,5-dimethyl-pyrazol-1-yl)-acetyl]-piperazin-1-yl}-benzamide]"
11,11 nM,"Cc1cc(C)n(CC(=O)N2CCN(c3ccccc3C(=O)Nc3nc(C)c(C(C)(C)C)s3)CC2)n1 [N-(5-tert-Butyl-4-methyl-thiazol-2-yl)-2-{4-[2-(3,5-dimethyl-pyrazol-1-yl)-acetyl]-piperazin-1-yl}-benzamide]"
12,10.6 nM,"Cc1cc(C)n(CC(=O)N2CCN(c3ncc(Cl)cc3NC(=O)c3cccc(C(F)(F)F)c3)CC2)n1 [N-(5-Chloro-2-{4-[2-(3,5-dimethyl-pyrazol-1-yl)-acetyl]-piperazin-1-yl}-pyridin-3-yl)-3-trifluoromethyl-benzamide]"
13,15 nM,"Cc1cc(C)n(CC(=O)N2CCN(c3ccccc3C(=O)Nc3nc(C(C)(C)C)cs3)CC2)n1 [N-(4-tert-Butyl-thiazol-2-yl)-2-{4-[2-(3,5-dimethyl-pyrazol-1-yl)-acetyl]-piperazin-1-yl}-benzamide]"
14,7.3 nM,"Cc1cc(C)n(CC(=O)N2CCN(c3ccccc3C(=O)Nc3ncc(C)s3)CC2)n1 [2-{4-[2-(3,5-Dimethyl-pyrazol-1-yl)-acetyl]-piperazin-1-yl}-N-(5-methyl-thiazol-2-yl)-benzamide]"
15,4 nM,"Cn1c(=O)n(CC(=O)N2CCN(c3ccccc3C(=O)Nc3ccncc3)CC2)c2ccccc21 [2-{4-[2-(3-Methyl-2-oxo-2,3-dihydro-benzoimidazol-1-yl)-acetyl]-piperazin-1-yl}-N-pyridin-4-yl-benzamide]"
16,4.4 nM,COc1cc(NC(=O)c2ccccc2N2CCN(C(=O)CN3CCCCC3=O)CC2)ccn1 [N-(2-Methoxy-pyridin-4-yl)-2-{4-[2-(2-oxo-piperidin-1-yl)-acetyl]-piperazin-1-yl}-benzamide]

row,IC50,Structure (SMILES)
1,6.3 nM,"N#Cc1ccc(NC(=O)c2ccccc2N2CCN(C(=O)Cn3ccc4cccnc43)CC2)cn1 [N-(6-Cyano-pyridin-3-yl)-2-[4-(2-pyrrolo[2,3-b]pyridin-1-yl-acetyl)-piperazin-1-yl]-benzamide]"
2,10.8 nM,"Cc1cc(C)n(CC(=O)N2CCN(c3ccccc3C(=O)Nc3cncc(F)c3)CC2)n1 [2-{4-[2-(3,5-Dimethyl-pyrazol-1-yl)-acetyl]-piperazin-1-yl}-N-(5-fluoro-pyridin-3-yl)-benzamide]"
3,10.2 nM,"CC(=O)Nc1ccc(NC(=O)c2ccccc2N2CCN(C(=O)Cn3nc(C)cc3C)CC2)cn1 [N-(6-Acetylamino-pyridin-3-yl)-2-{4-[2-(3,5-dimethyl-pyrazol-1-yl)-acetyl]-piperazin-1-yl}-benzamide]"
4,3.7 nM,"COc1cccc(C(=O)NCC(=O)N2CCN(c3ccccc3C(=O)Nc3ccncc3)CC2)c1OC [2,3-Dimethoxy-N-(2-oxo-2-{4-[2-(pyridin-4-ylcarbamoyl)-phenyl]-piperazin-1-yl}-ethyl)-benzamide]"
5,19 nM,O=C(Nc1ccncc1)c1ccccc1N1CCN(C(=O)CNc2ccccc2)CC1 [2-[4-(2-Phenylamino-acetyl)-piperazin-1-yl]-N-pyridin-4-yl-benzamide]
6,5.1 nM,"Cc1cncc(NC(=O)c2ccccc2N2CCN(C(=O)Cn3nc(C)cc3C)CC2)c1 [2-{4-[2-(3,5-Dimethyl-pyrazol-1-yl)-acetyl]-piperazin-1-yl}-N-(5-methyl-pyridin-3-yl)-benzamide]"
7,4.6 nM,"O=C(Nc1cccnc1)c1ccccc1N1CCN(C(=O)Cn2ccc3cccnc32)CC1 [N-Pyridin-3-yl-2-[4-(2-pyrrolo[2,3-b]pyridin-1-yl-acetyl)-piperazin-1-yl]-benzamide]"
8,9.1 nM,"Cc1cc(C)n(CC(=O)N2CCN(c3ccccc3NC(=O)c3ccc(Oc4ccccc4)nc3)CC2)n1 [N-(2-{4-[2-(3,5-Dimethyl-pyrazol-1-yl)-acetyl]-piperazin-1-yl}-phenyl)-6-phenoxy-nicotinamide]"
9,25 nM,CS(=O)(=O)c1ccc(NC(=O)c2ccccc2N2CCN(C(=O)Cn3c(C(=O)O)cc4cc(Cl)ccc43)CC2)cc1 [5-Chloro-1-(2-{4-[2-(4-methanesulfonyl-phenylcarbamoyl)-phenyl]-piperazin-1-yl}-2-oxo-ethyl)-1-H-indole-2-carboxylic acid]
10,10.3 nM,O=C(Nc1ccncc1)c1ccccc1N1CCN(C(=O)Cc2coc3ccccc23)CC1 [2-[4-(2-Benzofuran-3-yl-acetyl)-piperazin-1-yl]-N-pyridin-4-yl-benzamide]
11,7.4 nM,O=C(Nc1ccncc1)c1ccccc1N1CCN(C(=O)CN2CCCCC2=O)CC1 [2-{4-[2-(2-Oxo-piperidin-1-yl)-acetyl]-piperazin-1-yl}-N-pyridin-4-yl-benzamide]
12,5 nM,"Cc1cc(C)n(CC(=O)N2CCN(c3ccccc3C(=O)Nc3cnc(C(F)(F)F)nc3)CC2)n1 [2-{4-[2-(3,5-Dimethyl-pyrazol-1-yl)-acetyl]-piperazin-1-yl}-N-(2-trifluoromethyl-pyrimidin-5-yl)-benzamide]"
13,6.6 nM,"O=C(Nc1ccncc1)c1ccccc1N1CCN(C(=O)CN2C(=O)c3ccccc3S2(=O)=O)CC1 [N-Pyridin-4-yl-2-{4-[2-(1,1,3-trioxo-1,3-dihydro-1l6-benzo[d]isothiazol-2-yl)-acetyl]-piperazin-1-yl}-benzamide]"
14,6.9 nM,"O=C(Nc1ccc(C(F)(F)F)nc1)c1ccccc1N1CCN(C(=O)Cn2ccc3cccnc32)CC1 [2-[4-(2-Pyrrolo[2,3-b]pyridin-1-yl-acetyl)-piperazin-1-yl]-N-(6-trifluoromethyl-pyridin-3-yl)-benzamide]"
15,7.6 nM,"Cc1cc(C)n(CC(=O)N2CCN(c3ccccc3C(=O)Nc3cncc(Cl)c3)CC2)n1 [N-(5-Chloro-pyridin-3-yl)-2-{4-[2-(3,5-dimethyl-pyrazol-1-yl)-acetyl]-piperazin-1-yl}-benzamide]"

# Test system: LDL receptor knockout model
# Assay: not given
# Settings: dosed prophylactically; cited from earlier work
row,Structure (SMILES),atherosclerotic lesion formation
1,CCOc1ccc(-n2c(C(C)N(Cc3cccnc3)C(=O)Cc3ccc(F)c(C(F)(F)F)c3)nc3ncccc3c2=O)cc1 (centres unmarked) [NBI-74330],significantly attenuated atherosclerotic lesion formation
